Patent US5368707A, “Convenient determination of trace lead in whole blood and other fluids” (priority 1993, dated 1994)
“Also recorded” adds a separate entry of the source.

Assays:
[1] = biological target: T1, isocitrate dehydrogenase (Sus scrofa, UniProt P33198); assay: Effect of complexing agents and other assay components on isocitrate dehydrogenase activity and its lead inhibition; format: biochemical, pig
T1 construct: purchased Sigma, St. Louis, Mo; ICD Type VI
T1 sequence (P33198 9-421): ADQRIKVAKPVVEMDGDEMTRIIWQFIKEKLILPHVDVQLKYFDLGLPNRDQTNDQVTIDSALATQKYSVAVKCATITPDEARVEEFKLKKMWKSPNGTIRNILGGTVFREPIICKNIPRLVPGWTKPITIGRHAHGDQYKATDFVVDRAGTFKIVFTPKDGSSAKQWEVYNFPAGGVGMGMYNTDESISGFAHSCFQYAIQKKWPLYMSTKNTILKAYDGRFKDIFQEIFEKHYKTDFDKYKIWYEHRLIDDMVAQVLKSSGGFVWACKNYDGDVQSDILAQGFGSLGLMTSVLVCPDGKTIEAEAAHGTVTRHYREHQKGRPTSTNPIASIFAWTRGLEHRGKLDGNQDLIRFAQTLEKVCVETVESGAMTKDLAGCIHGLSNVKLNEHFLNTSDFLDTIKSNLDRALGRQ
Description: Any agent used for displacing lead from the EDTA complex must not interfere with the function or activity of the enzyme employed for detection. […] Other auxiliary complexing agents may also be useful, including iminodiacetate, citrate and lithium ion. Li^+1 is known to weaken lead ion binding to bovine serum albumin and is contemplated to be effective in displacing Pb^2+ from the complex.
To solve this problem, the inventors have employed strong chelating reagents to sequester lead ion from interfering blood proteins subsequent to release of the lead from the selected chelating reagent.

[2] = tested on: alcohol dehydrogenase
Method: A bioelectrode was prepared from colloidal gold adsorbed alcohol dehydrogenase according the procedure of Example 2 for ICD. Measurements were made in the microcell as described in Example 1 using various concentrations of mercury.

[3] = colloidal gold/ADH bioelectrode

Molecule	effect on ICDH activity / lead inhibition of ICDH [1]	further results
O=C(O)[C@@H](S)[C@@H](S)C(=O)O [DMSA, meso 2,3-dimercaptosuccinic acid]	do not interfere with electrochemical detection of lead by ICDH inhibition; also recorded: the activity, stability and lead inhibition are not adversely affected	
O=C(O)CN(CCN(CC(=O)O)CC(=O)O)CC(=O)O [EDTA]	adversely affect lead ion inhibition of isocitric dehydrogenase	
[Mg+2] [Mg^+2]		effectiveness as cofactor of isocitric dehydrogenase ([1]; compared with Mn2+, millimolar concentrations): equally effective
C[n+]1c2ccccc2nc2ccccc21 [NMP-MS, N-methylphenazine methosulfate]	interfered with inhibition of the enzyme by added lead ion	
CC(=O)O [acetate]	the activity, stability and lead inhibition are not adversely affected	
c1ccc(-c2ccccc2)cc1 [biphenyl]	do not interfere with electrochemical detection of lead by ICDH inhibition	
c1ccc(-c2ccccn2)nc1 [dipyridyl]	the activity, stability and lead inhibition are not adversely affected	
c1cnc2c(c1)ccc1cccnc12 [o-phenanthroline]	do not interfere with electrochemical detection of lead by ICDH inhibition; also recorded: the activity, stability and lead inhibition are not adversely affected	
mercury ion		detection range ([2]; colloidal gold adsorbed ADH biosensor): nanomolar range; amperometric response [2, 3]: linear response in at nanomolar levels; reversibility of inhibition [2, 3]: irreversible; specificity of inhibition ([2]; in the presence of added lead ion): specific for mercury in the presence of added lead ion
